Test results published in patent US8623405B2, “Finely divided composition containing poorly water soluble substance” (Takeda Pharmaceutical Company Limited, priority 2005, dated 2014).

Legend:
Format in all cases: physicochemical
[1] = Particle size measurement of pulverized suspensions (laser diffraction/scattering LA-920)
[2] = Degree of crystallinity of composition after pulverization (powder X-ray diffraction, Vonk method); details: before pulverization
[3] = Particle size measurement of pulverized suspensions (laser diffraction/scattering LA-920); details: after pulverization (Example 1, ball mill with Kollidon 17PF and sodium lauryl sulfate)
Source text: The dispersion medium used for the measurement is usually water, but an aqueous solution of a substance other than the poorly water soluble substance contained in the composition and the like (for some purposes, buffer solutions at various pH levels, mimicked body fluid, 0.5% methylcellulose aqueous solution and the like) can also be used.
“90% frequency particle diameter” is a particle diameter corresponding to the 90% frequency of the above-described integral distribution curve and, in the present invention, means the particle diameter of 90% frequency (90% frequency particle diameter) of the composition dispersed in a liquid, as measured using a laser diffraction/scattering particle size distribution analyzer (LA-920, Horiba Ltd.).
As a dispersion medium, purified water was used.

[4] = Degree of crystallinity of composition after pulverization (powder X-ray diffraction, Vonk method); details: after pulverization (freeze-dried pulverized suspension of Example 1)
Experimental: A powder obtained by freeze-drying the pulverized suspension obtained in Example 1 was enclosed in a quartz glass capillary and measured using a powder X-ray diffraction measurement apparatus (Rigaku Corporation, ultraX TTR2-300), Cu rotating target, parallel beam method (50 kV, 300 mA), scanning angle 3-120 degrees, scan step 0.02 degree/counting time 0.6 sec. The degree of crystallinity was calculated from the obtained X-ray diffraction profile using the Vonk method.
The X-ray diffraction profiles were obtained by measurements using the above-mentioned measurement apparatuses and conditions.

[5] = after pulverization (Example 1, ball mill with Kollidon 17PF and sodium lauryl sulfate)
[6] = before pulverization, substances used in Example 1

Compound | particle size: D50 [1, 5] [μm] | particle size: D50 [1, 6] [μm] | degree of crystallinity [2] [%] | turbulent factor [2] | D90 [3] [μm] | degree of crystallinity [4] [%] | turbulent factor [4]
FC(F)(F)c1ccc(/C=C/c2nc(COc3ccc(CCCCn4ccnn4)cc3)co2)cc1 [compound A, 1-(4-{4-[(2-{(E)-2-[4-(trifluoromethyl)phenyl]ethenyl}-1,3-oxazol-4-yl)methoxy]phenyl}butyl)-1H-1,2,3-triazole] | 0.42 | 5.68 | 74.7 | −0.163 | 0.68 | 61.3 | 1.412
CCC1=C(C)CN(C(=O)NCCc2ccc(S(=O)(=O)NC(=O)N[C@H]3CC[C@H](C)CC3)cc2)C1=O [glimepiride] | 0.39 | 1.67 | 73.7 | 0.622 | 0.55 | 68.7 | 2.249
COC1=CC(=O)C[C@@H](C)[C@]12Oc1c(Cl)c(OC)cc(OC)c1C2=O [griseofluvin, 7-chloro-2′,4,6-trimethoxy-6′-methylspiro[benzofuran-2(3H),1′-[2]cyclohexene]-3,4′-dione] | 0.35 | 6.35 | – | – | 0.50 | – | –

Continued, values first:

particle size: D50 [1, 5] [μm] | particle size: D50 [1, 6] [μm] | degree of crystallinity [2] [%] | turbulent factor [2] | D90 [3] [μm] | degree of crystallinity [4] [%] | turbulent factor [4] | Compound
0.36 | 9.61 | 99.9 | −0.001 | 0.50 | 89.8 | 0.793 | COc1ccc2c(c1)c(CC(=O)O)c(C)n2C(=O)c1ccc(Cl)cc1 [indomethacin]
0.50 | – | – | – | 0.77 | – | – | CC(C(=O)O)c1cccc(C(=O)c2ccccc2)c1 (stereo not shown) [ketoprofen, Ketoprofen]
0.44 | – | – | – | 0.65 | – | – | COc1cc(NS(=O)(=O)c2ccc(N)cc2)nc(OC)n1 [sulfadimethoxine]
